Values quoted from earlier work, collected in PMC3277211 (Journal of the American Chemical Society, 2011).

Legend:
[1] = system: P. aeruginosa P84L PAS2008; details: P. aeruginosa PAO1 LepB(P84L) PAS2008; included for comparison
E. coli P84L PAS0260 = details: E. coli MG1655 LepB(P84L) PAS0260; included for comparison
S. epidermidis RP62A = details: included for comparison
P. aeruginosa PAO1 = P. aeruginosa PAO1 wild type; included for comparison
S. pneumoniae R800 = details: included for comparison
S. aureus NCTC 8325 = S. aureus NCTC 8325 wild type; included for comparison
S. pyogenes MGAS-1 = details: included for comparison
S. agalactiae COH-1 = details: included for comparison
C. glutamicum DSM 44475 = details: included for comparison
S. aureus P29S PAS8001 = details: S. aureus NCTC 8325 SpsB(P29S) PAS8001; included for comparison
R. opacus DSM 1069 = details: included for comparison

For Arylomycin A-C16, the MIC [1] is listed as 8 µg/mL, the MIC (E. coli P84L PAS0260) is listed as 2 µg/mL and the MIC (S. epidermidis RP62A) is listed as 0.25 µg/mL. The MIC (P. aeruginosa PAO1) was >128 µg/mL, the MIC (S. pneumoniae R800) was 8 µg/mL and the MIC (S. aureus NCTC 8325) was >128 µg/mL. The MIC (S. pyogenes MGAS-1) was 8 µg/mL, the MIC (S. agalactiae COH-1) was >128 µg/mL and the MIC (C. glutamicum DSM 44475) was 4 µg/mL. The MIC (S. aureus P29S PAS8001) was 2 µg/mL and the MIC (R. opacus DSM 1069) was 2 µg/mL.
